The record followed here is the OPERA property sets (Mansouri et al. 2018).

The structures appear in SMILES notation.

With `COC(=O)C(=Cc1ccc(C(=O)OC)o1)[N+](=O)[O-]`, the lipophilicity (logP) (as a rule, the decadic logarithm of the partition coefficient of the neutral form, usually between octanol and water) is 1.87.

Consider `COC(=O)C(=Cc1ccc(I)o1)[N+](=O)[O-]`, for which the log partition coefficient (logP) was 3.

For the compound `CCC(C)NC(=O)C=Cc1ccc([N+](=O)[O-])o1` (stereo unspecified), the log partition coefficient (logP) was found to be 2.28.

Turning to `CCNC(=O)C=Cc1ccc([N+](=O)[O-])o1`, the lipophilicity (logP) came out at 1.39.

The compound `CC(C)(C)NC(=O)C=Cc1ccc([N+](=O)[O-])o1` showed a log partition coefficient (logP) of 2.33.

In turn, `CCCCNC(=O)C=Cc1ccc([N+](=O)[O-])o1` came in with a log partition coefficient (logP) of 2.36.

`COC(=O)C=Cc1ccc([N+](=O)[O-])o1` showed a logP of 1.65.

`COC(=O)C(=Cc1ccco1)[N+](=O)[O-]`: the lipophilicity (logP) was found to be 1.88.

As to `O=[N+]([O-])c1ccc(C=CS(=O)(=O)c2ccccc2)o1`, the logP stood at 1.88.

In turn, `CCCOC(=O)C=Cc1ccc([N+](=O)[O-])o1` returned a lipophilicity (logP) of 2.67.

The compound `N#CC=Cc1ccc([N+](=O)[O-])o1` gave a logP of 1.05.

For the compound `CC(C)(C)CNC(=O)C=Cc1ccc([N+](=O)[O-])o1`, the log partition coefficient (logP) was determined as 2.61.

As to `COC(=O)C(=Cc1ccc(C)o1)[N+](=O)[O-]`, the logP came to 2.44.

In turn, `CC(C)CNC(=O)C=Cc1ccc([N+](=O)[O-])o1` registered a logP of 2.23.

Turning to `O=[N+]([O-])c1ccc(C=CBr)o1`, the logP was 2.45.

Take `CC(C)COC(=O)C=Cc1ccc([N+](=O)[O-])o1`: the log partition coefficient (logP) is 3.14.

The compound `CNC(=O)C=Cc1ccc([N+](=O)[O-])o1` returned a logP of 0.98.

Compound `CC(C)(C)OC(=O)C=Cc1ccc([N+](=O)[O-])o1` registered a log partition coefficient (logP) of 3.06.

The compound `COC(=O)C(=Cc1ccc(Br)o1)[N+](=O)[O-]` registered a logP of 2.74.

As to `CCOC(=O)C(=Cc1ccc([N+](=O)[O-])o1)C(=O)OCC`, the logP worked out at 2.5.

`O=C(O)C=Cc1ccc([N+](=O)[O-])o1` came in with a lipophilicity (logP) of 0.68.

As for `CC(C)OC(=O)C=Cc1ccc([N+](=O)[O-])o1`, the lipophilicity (logP) was found to be 2.64.

For `COC(=O)C(=Cc1ccc([N+](=O)[O-])o1)[N+](=O)[O-]`, the log partition coefficient (logP) turned out to be 1.6.

As to `CN(C)C(=O)C=Cc1ccc([N+](=O)[O-])o1`, the lipophilicity (logP) amounted to 0.82.

`CCC(C)OC(=O)C=Cc1ccc([N+](=O)[O-])o1` (stereo unspecified) had a logP of 3.09.

Regarding `C=Cc1ccc([N+](=O)[O-])o1`, the logP is 1.61.

In the case of `O=[N+]([O-])C=Cc1ccc([N+](=O)[O-])o1`, the logP came out at 1.3.

Take `CCCNC(=O)C=Cc1ccc([N+](=O)[O-])o1`: the log partition coefficient (logP) turned out to be 1.86.

The compound `CCCCCOC(=O)C=Cc1ccc([N+](=O)[O-])o1` displayed a logP of 3.4.

`CCOC(=O)C=Cc1ccc([N+](=O)[O-])o1` gave a log partition coefficient (logP) of 2.1.

As for `CCCCOC(=O)C=Cc1ccc([N+](=O)[O-])o1`, the logP amounted to 2.83.
